Data taken from PubChem BioAssay (NCI).
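GI50 marks 50% less growth. The concentration for full growth arrest is given as TGI.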

Assays:
Experiment in all cases: NCI tumour cell line growth inhibition, 384-well format
786-0 renal = system: 786-0 renal
A498 renal = system: A498 renal
A549 NSCLC = system: A549 NSCLC
ACHN renal = system: ACHN renal
BT-549 breast = system: BT-549 breast
CAKI-1 renal = system: CAKI-1 renal
CCRF-CEM leukemia = system: CCRF-CEM leukemia
DU-145 prostate = system: DU-145 prostate
EKVX NSCLC = system: EKVX NSCLC
HCT-116 colon = system: HCT-116 colon
HCT-15 colon = system: HCT-15 colon
HL-60(TB) leukemia = system: HL-60(TB) leukemia
HOP-62 NSCLC = system: HOP-62 NSCLC
HOP-92 NSCLC = system: HOP-92 NSCLC
HS 578T breast = system: HS 578T breast
HT29 colon = system: HT29 colon
IGROV1 ovarian = system: IGROV1 ovarian
K-562 leukemia = system: K-562 leukemia
KM12 colon = system: KM12 colon
LOX IMVI melanoma = system: LOX IMVI melanoma
M14 melanoma = system: M14 melanoma
MALME-3M melanoma = system: MALME-3M melanoma
MCF7 breast = system: MCF7 breast
MDA-MB-231 breast = system: MDA-MB-231 breast
MDA-MB-435 melanoma = system: MDA-MB-435 melanoma
MDA-MB-468 breast = system: MDA-MB-468 breast
MOLT-4 leukemia = system: MOLT-4 leukemia
NCI-H226 lung = system: NCI-H226 lung
NCI-H23 lung = system: NCI-H23 lung
NCI-H322M lung = system: NCI-H322M lung
NCI-H522 lung = system: NCI-H522 lung
NCI/ADR-RES ovarian = system: NCI/ADR-RES ovarian
OVCAR-3 ovarian = system: OVCAR-3 ovarian
OVCAR-4 ovarian = system: OVCAR-4 ovarian
OVCAR-5 ovarian = system: OVCAR-5 ovarian
OVCAR-8 ovarian = system: OVCAR-8 ovarian
PC-3 prostate = system: PC-3 prostate
RPMI-8226 leukemia = system: RPMI-8226 leukemia
RXF 393 renal = system: RXF 393 renal
SF-268 CNS = system: SF-268 CNS
SF-295 CNS = system: SF-295 CNS
SF-539 CNS = system: SF-539 CNS
SK-MEL-2 melanoma = system: SK-MEL-2 melanoma
SK-MEL-28 melanoma = system: SK-MEL-28 melanoma
SK-OV-3 ovarian = system: SK-OV-3 ovarian
SN12C renal = system: SN12C renal
SNB-19 CNS = system: SNB-19 CNS
SNB-75 CNS = system: SNB-75 CNS
SW-620 colon = system: SW-620 colon
T-47D breast = system: T-47D breast
TK-10 renal = system: TK-10 renal
U251 glioblastoma = system: U251 glioblastoma
UACC-257 melanoma = system: UACC-257 melanoma
UACC-62 melanoma = system: UACC-62 melanoma
UO-31 renal = system: UO-31 renal

Structure (SMILES): O=C1c2c(O)ccc(O)c2C(=O)c2c(NCCNCCO)ccc(NCCNCCO)c21
- GI50 ([…]-0 renal): 10.3 nM
- TGI (786-0 renal): 246 nM
- GI50 (A498 renal): 11.4 nM
- TGI (A498 renal): 217 nM
- GI50 (A549 NSCLC): < 10 nM
- TGI (A549 NSCLC): 181 nM
- GI50 (ACHN renal): 33.3 nM
- TGI (ACHN renal): 251 nM
- GI50 (BT-549 breast): 15.5 nM
- TGI (BT-549 breast): 195 nM
- GI50 (CAKI-1 renal): 13.3 nM
- TGI (CAKI-1 renal): 642 nM
- GI50 (CCRF-CEM leukemia): < 10 nM
- TGI (CCRF-CEM leukemia): < 10 nM
- GI50 (DU-145 prostate): 19.6 nM
- TGI (DU-145 prostate): 650 nM
- GI50 (EKVX NSCLC): 589 nM
- TGI (EKVX NSCLC): 3540 nM
- GI50 (HCT-116 colon): < 10 nM
- TGI (HCT-116 colon): 242 nM
- GI50 (HCT-15 colon): < 10 nM
- TGI (HCT-15 colon): 173 nM
- GI50 (HL-60(TB) leukemia): < 10 nM
- TGI (HL-60(TB) leukemia): < 10 nM
- GI50 (HOP-62 NSCLC): < 10 nM
- TGI (HOP-62 NSCLC): 16 nM
- GI50 (HOP-92 NSCLC): 24.8 nM
- TGI (HOP-92 NSCLC): 1190 nM
- GI50 (HS 578T breast): < 10 nM
- TGI (HS 578T breast): 181 nM
- GI50 (HT29 colon): 34.4 nM
- TGI (HT29 colon): 187 nM
- GI50 (IGROV1 ovarian): 185 nM
- TGI (IGROV1 ovarian): 5370 nM
- GI50 (K-562 leukemia): 48.1 nM
- TGI (K-562 leukemia): 240 nM
- GI50 (KM12 colon): 44.7 nM
- TGI (KM12 colon): 284 nM
- GI50 (LOX IMVI melanoma): 13.8 nM
- TGI (LOX IMVI melanoma): 155 nM
- GI50 (M14 melanoma): 17.7 nM
- TGI (M14 melanoma): 334 nM
- GI50 (MALME-3M melanoma): 61.1 nM
- TGI (MALME-3M melanoma): 388 nM
- GI50 (MCF7 breast): < 10 nM
- TGI (MCF7 breast): 1180 nM
- GI50 (MDA-MB-231 breast): 18.7 nM
- TGI (MDA-MB-231 breast): 97.9 nM
- GI50 (MDA-MB-435 melanoma): 125 nM
- TGI (MDA-MB-435 melanoma): 1100 nM
- GI50 (MDA-MB-468 breast): 16.8 nM
- TGI (MDA-MB-468 breast): 59.8 nM
- GI50 (MOLT-4 leukemia): < 10 nM
- TGI (MOLT-4 leukemia): < 10 nM
- GI50 (NCI-H226 lung): 13.4 nM
- TGI (NCI-H226 lung): 163 nM
- GI50 (NCI-H23 lung): 12.9 nM
- TGI (NCI-H23 lung): 102 nM
- GI50 (NCI-H322M lung): 313 nM
- TGI (NCI-H322M lung): 1760 nM
- GI50 (NCI-H522 lung): 14.6 nM
- TGI (NCI-H522 lung): 58 nM
- GI50 (NCI/ADR-RES ovarian): 4580 nM
- TGI (NCI/ADR-RES ovarian): > 100000 nM
- GI50 (OVCAR-3 ovarian): 186 nM
- TGI (OVCAR-3 ovarian): 1160 nM
- GI50 (OVCAR-4 ovarian): 171 nM
- TGI (OVCAR-4 ovarian): 660 nM
- GI50 (OVCAR-5 ovarian): 24.3 nM
- TGI (OVCAR-5 ovarian): 284 nM
- GI50 (OVCAR-8 ovarian): < 10 nM
- TGI (OVCAR-8 ovarian): 152 nM
- GI50 (PC-3 prostate): 135 nM
- TGI (PC-3 prostate): 545 nM
- GI50 (RPMI-8226 leukemia): < 10 nM
- TGI (RPMI-8226 leukemia): 37.1 nM
- GI50 (RXF 393 renal): 61 nM
- TGI (RXF 393 renal): 210 nM
- GI50 (SF-268 CNS): < 10 nM
- TGI (SF-268 CNS): 154 nM
- GI50 (SF-295 CNS): 10.6 nM
- TGI (SF-295 CNS): 44.7 nM
- GI50 (SF-539 CNS): < 10 nM
- TGI (SF-539 CNS): 124 nM
- GI50 (SK-MEL-2 melanoma): 83.9 nM
- TGI (SK-MEL-2 melanoma): 189 nM
- GI50 (SK-MEL-28 melanoma): 116 nM
- TGI (SK-MEL-28 melanoma): 1370 nM
- GI50 (SK-OV-3 ovarian): 17.7 nM
- TGI (SK-OV-3 ovarian): 661 nM
- GI50 (SN12C renal): < 10 nM
- TGI (SN12C renal): 55.5 nM
- GI50 (SNB-19 CNS): 10.5 nM
- TGI (SNB-19 CNS): 1120 nM
- GI50 (SNB-75 CNS): 22.9 nM
- TGI (SNB-75 CNS): 130 nM
- GI50 (SW-620 colon): < 10 nM
- TGI (SW-620 colon): 507 nM
- GI50 (T-47D breast): 29.8 nM
- TGI (T-47D breast): 1420 nM
- GI50 (TK-10 renal): 121 nM
- TGI (TK-10 renal): 358 nM
- GI50 (U251 glioblastoma): < 10 nM
- TGI (U251 glioblastoma): 114 nM
- GI50 (UACC-257 melanoma): 1100 nM
- TGI (UACC-257 melanoma): 2370 nM
- GI50 (UACC-62 melanoma): < 10 nM
- TGI (UACC-62 melanoma): 148 nM
- GI50 (UO-31 renal): 195 nM
- TGI (UO-31 renal): 1650 nM
